Values of other authors as cited in patent US4632934A, “Imidazole derivatives and pharmaceutical use thereof” (Kissei Pharmaceutical Co., Ltd., priority 1978, dated 1986).

Test system: thromboxane synthetase
Conditions: prior art literature

Compound | inhibitory effect on thromboxane synthetase (in words)
c1ccc(Cn2ccnc2)cc1 [1-benzylimidazole] | strong inhibitory effect
c1c[nH]cn1 [imidazole] | very weak inhibitory effect

Next, values leading:

inhibitory effect on thromboxane synthetase (in words) | Compound
strong inhibitory effect | CCCCCCCCCCn1ccnc1 [1-decylimidazole]
strong inhibitory effect | CCCCCCCCCn1ccnc1 [1-nonylimidazole]
strong inhibitory effect | CC(C)c1ccccc1-n1ccnc1 [1-(2-isopropylphenyl)imidazole]
